One test addresses human plasma kallikrein (Homo sapiens, UniProt P03952). Put plainly: Kallikrein inhibition assay (FLINT) utilizing a quenched AMC peptide substrate Z-Gly-Pro-Arg-AMC. The following applies: kinetic (KIN) reads, read-out: Kallikrein KIN Inh IC50. The test is classed as biochemical. From the text:
Biological Example 2: Kallikrein Inhibition Assay Utilizing a Quenched AMC Peptide Substrate A fluorescence intensity (FLINT) based assay was used to monitor inhibition of human plasma kallikrein. The peptide substrate, Z-Gly-Pro-Arg-AMC (Purchased from Bachem; Catalog #I-1150) was chosen based on its relatively low KM for kallikrein which enables running the assay at lower substrate concentrations to control background fluorescence.
The Kallikrein FLINT assay was used with the following Z-Gly-Pro-Arg-AMC assay buffer: 50 mM Tris, pH 7.5, 100 mM NaCl, 5 mM CaCl2, 0.1 mg/mL BSA, 0.03% CHAPS. Assay buffer was prepared by mixing all ingredients fresh. 2× Z-Gly-Pro-Arg-AMC peptide substrate was prepared by diluting 10 mM stock into 1× assay buffer for a 100 μM working concentration (50 μM final concentration). The 2× kallikrein stock solution was prepared by diluting 14.76 μM stock in 1× assay buffer for a 4 nM working stock solution (2 nM final concentration).
Test compound(s) were run in an 11-point, 3-fold serial dilution with a final top compound concentration of 1 μM. Final DMSO in assay was 2%. Plasma kallikrein was pre-incubated for 30-minute with compound and then 50 μM substrate was added to initiate the reaction. The assay was run with kinetic (KIN) reads at 5 min intervals over 30 minutes. The time course was linear using 2 nM kallikrein greater than 30 minutes. More specifically, the assay was run as follows: • 100 nL of 0.1 mM test compound was dispensed into black 384-well non-binding Greiner BioOne 784900 plate for 1 μM final concentration; • 5 μL of 1× assay buffer was dispensed to columns 24 (low control) and 5 μL 2× human kallikrein enzyme solution was dispensed to columns 1-23 (column 23 high control); • the plate was centrifuged with a “cover” plate at 500 rpm for 1 min • the plate was pre-incubated for 30 minutes at room temperature with plate covered; • 5 μL of 2× Z-Gly-Pro-Arg-AMC peptide substrate was dispensed into the entire plate, columns 1-24; • the plate was centrifuged with a “cover” plate at 500 rpm for 1 min; • the plate was read monitoring fluorescence intensity on the BMG PHERAStar at room temperature, using fluorescence module 340 nm/440 nm.
(§1) Percent inhibition (IC50) curves were generated per compound tested, and data was analyzed using a 4-parameter logistic fit using GeneData Screener. The relative fluorescence unit (RFU) values were normalized to percent inhibition using the following equation:
% inhibition=((HC−LC)−(compound−LC)/(HC−LC))*100 where LC—low control=mean signal of […] or 100% inhibition of human kallikrein enzyme; HC—high control=mean signal of […]+Z-Gly-Pro-Arg-AMC peptide substrate with DMSO only.
(§2) An 11-point dose response curve for the test compound(s) was generated using GENDATA to determine IC50 value based on the following equation:
Y=Bottom+(Top−Bottom)/(1+10^((log IC50−X)*HillSlope)) where Y is the % inhibition in the presence of X inhibitor concentration, Top=high control=mean signal of human kallikrein enzyme+Z-Gly-Pro-Arg-AMC peptide substrate with DMSO only; Bottom=low control−mean signal of no human kallikrein enzyme or 100% inhibition of human kallikrein enzyme; HillSlope−Hill coefficient; and IC50=concentration of compound with 50% inhibition in relation to top/high control.

The target in another test is Factor XIa (Homo sapiens, UniProt P03951). The test is described as follows: Factor XIa inhibition assay (FLINT) utilizing a fluorophore-quencher pair peptide substrate 5Fam-[…]-K5Tamra. The following applies: kinetic (KIN) reads; values in nM; read-out: FXIa KIN Inh IC50. The test is classed as biochemical.
From the text: Biological Example 1: Factor XIa Inhibition Assay Utilizing a Fluorophore-Quencher Pair Peptide Substrate A fluorescence intensity (FLINT) based assay was used to monitor inhibition of Factor XIa. The peptide substrate, 5Fam-[…]-K5Tamra (purchased from New England Peptide) was chosen based on the FXI sequence. Conversion of zymogen FXI to its activated form, FXIa, occurs by proteolytic cleavage by […] at two sites, Arg146 and Arg180. The custom peptide used in this assay was based on the Arg146 cleavage site of FXI. The peptide substrate was designed with a fluorophore-quencher pair, where the fluorescence is quenched until FXIa cleaves the 8-mer peptide after the Arg residue.
The Factor XIa FLINT assay was used with the following 5Fam-[…]-K5Tamra assay buffer: 50 mM Tris, pH 7.5, 100 mM NaCl, 5 mM CaCl2, 0.1 mg/mL BSA, 0.03% CHAPS. Assay buffer was prepared by mixing all ingredients fresh. 5Fam-[…]-K5Tamra peptide substrate was first prepared at 10 mM in 100% DMSO, then diluted to 3 mM in 100% DMSO. Assay buffer was then added directly to the 3 mM stock of substrate to prepare the 30 μM 2× working concentration (15 μM final concentration). The 2× Factor XIa stock solution was prepared by diluting 6.562 μM stock in 1× assay buffer for a […].
Test compound(s) were run in an 11-point, 3-fold serial dilution with a final top compound concentration of 100 nM. Final DMSO in assay was 2%. FXIa was preincubated with compound for 30-minutes and then substrate was added to initiate the reaction. The assay was run with kinetic (KIN) reads at 5 min intervals over 30 minutes. […] More specifically, the assay was run as follows: • 100 nL of 0.01 mM test compound was dispensed into black 384-well non-binding Greiner BioOne 784900 plate for 0.1 μM final concentration; • 5 μL of 1× assay buffer was dispensed to column 24 (low control) and 5 μL 2× Factor XIa solution was dispensed to columns 1-23 (column 23 high control); • the plate was centrifuged with a “cover” plate at 500 rpm for 1 min • the plate was pre-incubated for 30 minutes at room temperature with plate covered; • 5 μL of 2×5Fam-[…]-K5Tamra peptide substrate was dispensed into the entire plate, columns 1-24; • the plate was centrifuged with a “cover” plate at 500 rpm for 1 min; • the plate was read monitoring fluorescence intensity on the BMG PHERAStar at room temperature, using fluorescence module 485 nm/520 nm.
as §1
% inhibition=((HC−LC)−(compound−LC)/(HC−LC))*100 where LC−low control=mean signal of no Factor XIa or 100% inhibition of Factor XIa; HC−high control=mean signal of Factor XIa+5Fam-[…]-K5Tamra peptide substrate with DMSO only.
as §2
Y=Bottom+(Top−Bottom)/(1+10^((log IC50−X)*HillSlope)) where Y is the % inhibition in the presence of X inhibitor concentration, Top=high control=mean signal of Factor XIa+5Fam-[…]-K5Tamra peptide substrate with DMSO only; Bottom=low control−mean signal of no Factor XIa or 100% inhibition of Factor XIa; HillSlope−Hill coefficient; and IC50=concentration of compound with 50% inhibition in relation to top/high control.

Each structure is given as a SMILES string. Like-named read-outs stand apart in the source and are kept apart here.

human plasma kallikrein, sequence (P03952 391-638 limits assumed): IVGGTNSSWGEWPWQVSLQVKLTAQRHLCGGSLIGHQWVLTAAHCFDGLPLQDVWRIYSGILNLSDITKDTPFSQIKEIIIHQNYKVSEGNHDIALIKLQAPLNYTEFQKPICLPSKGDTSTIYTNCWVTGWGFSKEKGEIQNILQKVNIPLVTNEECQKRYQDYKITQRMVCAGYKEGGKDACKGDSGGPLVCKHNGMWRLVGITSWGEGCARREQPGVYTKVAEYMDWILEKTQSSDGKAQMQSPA
human plasma kallikrein, sequence (P03952 20-390 partner limits assumed): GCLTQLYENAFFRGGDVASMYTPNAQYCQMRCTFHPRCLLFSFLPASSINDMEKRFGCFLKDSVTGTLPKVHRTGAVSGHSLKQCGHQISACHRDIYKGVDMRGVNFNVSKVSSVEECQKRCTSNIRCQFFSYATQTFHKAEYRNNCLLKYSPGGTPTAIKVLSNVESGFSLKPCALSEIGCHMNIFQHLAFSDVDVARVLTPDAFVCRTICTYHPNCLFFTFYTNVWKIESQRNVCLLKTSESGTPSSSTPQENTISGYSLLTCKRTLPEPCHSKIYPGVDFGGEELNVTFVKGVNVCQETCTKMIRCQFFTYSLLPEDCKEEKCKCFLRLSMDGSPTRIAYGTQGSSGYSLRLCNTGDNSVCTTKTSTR
Factor XIa, sequence (P03951 388-625 limits assumed): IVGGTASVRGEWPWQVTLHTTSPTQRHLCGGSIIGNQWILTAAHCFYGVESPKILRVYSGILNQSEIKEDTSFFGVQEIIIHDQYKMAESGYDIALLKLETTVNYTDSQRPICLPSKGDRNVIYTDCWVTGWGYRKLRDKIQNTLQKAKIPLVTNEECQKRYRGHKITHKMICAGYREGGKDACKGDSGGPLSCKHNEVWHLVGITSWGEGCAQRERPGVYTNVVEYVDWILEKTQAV
Factor XIa, sequence (P03951 19-387 partner limits assumed): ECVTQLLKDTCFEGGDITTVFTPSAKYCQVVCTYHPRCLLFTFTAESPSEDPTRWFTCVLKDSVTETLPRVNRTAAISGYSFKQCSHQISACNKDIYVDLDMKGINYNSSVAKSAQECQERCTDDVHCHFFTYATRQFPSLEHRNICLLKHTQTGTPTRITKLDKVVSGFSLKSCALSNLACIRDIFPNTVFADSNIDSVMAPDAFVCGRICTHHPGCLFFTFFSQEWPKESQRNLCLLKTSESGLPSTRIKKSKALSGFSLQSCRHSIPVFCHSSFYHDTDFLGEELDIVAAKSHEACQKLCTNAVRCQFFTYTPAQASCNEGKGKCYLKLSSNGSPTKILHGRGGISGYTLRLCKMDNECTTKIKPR

In the case of `Nc1ncc(-c2cnc([C@@H]3CC4(CC4)c4cc(-c5c(-n6cnnn6)ccc(Cl)c5F)cc(=O)n43)[nH]2)s1` [Example 18, (S)-3′-(5-(2-Aminothiazol-5-yl)-1H-imidazol-2-yl)-7′-(3-chloro-2-fluoro-6-(1H-tetrazol-1-yl)phenyl)-2′,3′-dihydro-5′H-spiro[cyclopropane-1,1′-indolizin]-5′-one], the IC50 (usually the midpoint of a concentration-inhibition curve) at human plasma kallikrein (values in nM) stood at 105 nM; at Factor XIa it was 9.1 nM.

For the molecule `Nc1nsc2cc(-c3cnc([C@H]4CC5(CC5)c5nc(-c6c(-n7cnnn7)ccc(Cl)c6F)cc(=O)n54)[nH]3)ccc12` [Example 82, (R)-6′-(5-(3-Aminobenzo[d]isothiazol-6-yl)-1H-imidazol-2-yl)-2′-(3-chloro-2-fluoro-6-(1H-tetrazol-1-yl)phenyl)-6′,7′-dihydro-4′H-spiro[cyclopropane-1,8′-pyrrolo[1,2-a]pyrimidin]-4′-one], the IC50 stood at 142 nM on human plasma kallikrein (values in nM) and 53.8 nM on Factor XIa.

Turning to `C[C@H]1C[C@@H](c2ncc(-c3ccnn3C)[nH]2)n2c1nc(-c1c(-n3cnnn3)ccc(Cl)c1F)cc2=O` (stereo in doubt) [Example 144, (6S*,8S*)-2-(3-Chloro-2-fluoro-6-(1H-tetrazol-1-yl)phenyl)-8-methyl-6-(5-(1-methyl-1H-pyrazol-5-yl)-1H-imidazol-2-yl)-7,8-dihydropyrrolo[1,2-a]pyrimidin-4(6H)-one], the IC50 on human plasma kallikrein (values in nM) amounted to 246 nM; at Factor XIa it was 62.1 nM.

For the molecule `C[C@H]1CC(c2ncc(-c3cnnn3C)[nH]2)n2c1nc(-c1c(-n3cnnn3)ccc(Cl)c1F)cc2=O` (stereo in doubt) [Example 136, (6*S,8*S)-2-(3-Chloro-2-fluoro-6-(1H-tetrazol-1-yl)phenyl)-8-methyl-6-(5-(1-methyl-1H-1,2,3-triazol-5-yl)-1H-imidazol-2-yl)-7,8-dihydropyrrolo[1,2-a]pyrimidin-4(6H)-one], the IC50 on human plasma kallikrein (unit μM) is more than 10000 nM; on Factor XIa, 566 nM.

In the case of `C[C@H]1C[C@@H](c2ncc(-c3cnc(N)nc3)[nH]2)n2c1nc(-c1c(-n3cnnn3)ccc(Cl)c1F)cc2=O` (stereo in doubt) [Example 119, (6*S,8*S)-6-(5-(2-Aminopyrimidin-5-yl)-1H-imidazol-2-yl)-2-(3-chloro-2-fluoro-6-(1H-tetrazol-1-yl)phenyl)-8-methyl-7,8-dihydropyrrolo[1,2-a]pyrimidin-4(6H)-one], the IC50 at human plasma kallikrein (values in nM) amounted to 287 nM; on Factor XIa, 8.7 nM.

For the molecule `Cc1nc(N)sc1-c1cnc([C@@H]2C[C@H](C)c3cc(-c4c(-n5cnnn5)ccc(Cl)c4F)cc(=O)n32)[nH]1` [Example 26, (1S,3S)-3-(5-(2-Amino-4-methylthiazol-5-yl)-1H-imidazol-2-yl)-7-(3-chloro-2-fluoro-6-(1H-tetrazol-1-yl)phenyl)-1-methyl-2,3-dihydroindolizin-5(1H)-one], the IC50 at human plasma kallikrein (unit μM) came out at 1300 nM; at Factor XIa it was 22.6 nM.

Turning to `C[C@@H]1C[C@H](c2ncc(-c3ccc(NC(=O)C4CC4)nc3)[nH]2)n2c1nc(-c1c(-n3cnnn3)ccc(Cl)c1F)cc2=O` (stereo in doubt) [Example 120, N-(5-(2-((6*R,8*R)-2-(3-Chloro-2-fluoro-6-(1H-tetrazol-1-yl)phenyl)-8-methyl-4-oxo-4,6,7,8-tetrahydropyrrolo[1,2-a]pyrimidin-6-yl)-1H-imidazol-5-yl)pyridin-2-yl)cyclopropanecarboxamide], the IC50 came out at 11.2 nM on human plasma kallikrein (values in nM) and 12.8 nM at Factor XIa.

As for `COC(=O)Nc1ccc(-c2cnc([C@@H]3C[C@H](C)c4nc(-c5c(-n6cnnn6)ccc(Cl)c5F)cc(=O)n43)[nH]2)cn1` (stereo in doubt) [Example 116, Methyl (5-(2-((6*S,8*S)-2-(3-Chloro-2-fluoro-6-(1H-tetrazol-1-yl)phenyl)-8-methyl-4-oxo-4,6,7,8-tetrahydropyrrolo[1,2-a]pyrimidin-6-yl)-1H-imidazol-5-yl)pyridin-2-yl)carbamate], the IC50 stood at 26.8 nM at human plasma kallikrein (values in nM) and 1.2 nM at Factor XIa.

Consider `C[C@H]1C[C@@H](c2ncc(-c3cnnn3C)[nH]2)n2c1cc(-c1c(-n3cnnn3)ccc(Cl)c1F)cc2=O` [Example 28, (1S,3S)-7-(3-Chloro-2-fluoro-6-(1H-tetrazol-1-yl)phenyl)-1-methyl-3-(5-(1-methyl-1H-1,2,3-triazol-5-yl)-1H-Imidazol-2-yl)-2,3-dihydroindolizin-5(1H)-one], for which the IC50 at human plasma kallikrein (unit μM) is 6400 nM; at Factor XIa it was 311 nM.

On to `C[C@H]1C[C@@H](c2ncc(-c3ccn4nccc4c3)[nH]2)n2c1cc(-c1c(-n3cnnn3)ccc(Cl)c1F)cc2=O` (stereo in doubt) [Example 53, (1*S,3*S)-7-(3-Chloro-2-fluoro-6-(1H-tetrazol-1-yl)phenyl)-1-methyl-3-(5-(pyrazolo[1,5-a]pyridin-5-yl)-1H-imidazol-2-yl)-2,3-dihydroindolizin-5(1H)-one], for which the IC50 at human plasma kallikrein (values in nM) came out at 54 nM; on Factor XIa, 43.7 nM.

`C[C@H]1C[C@H](c2ncc(-c3ccc(N)nc3Cl)[nH]2)n2c1nc(-c1c(-n3cnnn3)ccc(Cl)c1F)cc2=O` [Example 141]: the values for the IC50 on human plasma kallikrein (values in nM) and on Factor XIa were 13.5 nM and 0.5 nM, respectively.

For the molecule `O=c1cc(-c2c(-n3cnnn3)ccc(Cl)c2F)nc2n1[C@H](c1nc(-c3ccnc(OCC(O)C(F)(F)F)c3F)c[nH]1)CC21CC1` (single isomer, unassigned) [Example 73, (S)-2′-(3-chloro-2-fluoro-6-(1H-tetrazol-1-yl)phenyl)-6′-(4-(3-fluoro-2-((S*)-3,3,3-trifluoro-2-hydroxypropoxy)pyridin-4-yl)-1H-imidazol-2-yl)-6′,7′-dihydro-4′H-spiro[cyclopropane-1,8′-pyrrolo[1,2-a]pyrimidin]-4′-one], the IC50 at human plasma kallikrein (values in nM) was 54.8 nM; on Factor XIa, 22.1 nM.

For the origin of these results see patent US20230097157A1, “Bicyclic Pyridin-2-one and pyrimidin-4-one Derivatives Useful As a Factor XIa Inhibitors” (Janssen Pharmaceutica NV, priority 2021, published 2023).
